Earlier results on one substance are cited in article PMC4358366, “Identification of ‘erasers’ for lysine crotonylated histone marks using a chemical proteomics approach” (eLife, 2014).

“Also recorded” adds a separate entry of the source. Where no end group is shown, it is not given here. The star is where a group is joined. Crotonyl(E) = C/C=C/C(=O)*

What all share (conditions): H3K9Cr peptide, residues 5–13; [32P]-NAD TLC; ref Feldman et al., 2013; cited from earlier work
Data set [1] relates to Sirt2. The source says:
(§1) Lysine crotonylation (Kcr) is a newly discovered histone PTM that is specifically enriched at active gene promoters and potential enhancers in mammalian cell genomes ([Tan et al., 2011]). […] However, further mechanistic and functional studies of histone Kcr have been limited by a lack of knowledge of the enzymes that catalyze the addition or removal of Kcr in cells. In a systematic screening of the activities of the ... || Siruins were initially recognized as NAD-dependent deacetylases ([Imai et al., 2000]; [Landry et al., 2000]; [Sauve et al., 2006]). […] In this study ...

Data set [2] has as its system Sirt1.
Excerpt: as §1

The subject of data set [3] is Sirt3. An excerpt:
Siruins were initially recognized as NAD-dependent deacetylases ([Imai et al., 2000]; [Landry et al., 2000]; [Sauve et al., 2006]). […] In this study ...

“histone H3K9Cr peptide: H3K9Cr peptide of Denu's study, residues 5–13 of histone H3 (QTARK(Crotonyl(E))STGG; UniProt P68431 6-14, looked up, fragment)”: in data set [1], the “decrotonylase activity of Sirt2 (literature)” value is listed as “exhibited decrotonylase activity; also recorded: can catalyze the removal of a crotonyl group”. Moreover, the “decrotonylase activity of Sirt1 (literature)” value in data set [2] is “exhibited decrotonylase activity; also recorded: can catalyze the removal of a crotonyl group”. The “decrotonylase activity of Sirt3 (literature)” value in data set [3] is “totally inactive”.
